Measured values taken from patent publication US5489693A, “Cyclic imino derivatives, pharmaceutical compositions containing these compounds and processes preparing them” (priority 1992, dated 1996).
Where a name gives a salt, the structure may show the parent alone.

Assays:
[1] = target: human thrombocytes; test: Inhibition of binding of ^3 H-BIBU 52 to human thrombocytes (Fibrinogen-binding test); conditions: ^3 H-BIBU 52 5 nM, human platelet-rich plasma 1:10 diluted, ambient temperature, 20 minutes
Procedure: 1. Inhibition of binding of ^3 H-BIBU 52 to human thrombocytes: […] Case 5/1093-FL) and various concentrations of the substance to be tested. The free and bound ligand is separated by centrifuging and quantitatively determined by scintillation counting. The inhibition of ^3 H-BIBU 52 binding by the test substance is determined from the measurements obtained. In order to do this, donor blood is taken from an anticubital vein and anticoagulated with trisodium citrate (final concentration 13 mM). The blood is centrifuged for 10 minutes at 170 x g and the supernatant platelet-rich plasma (PRP) is removed. The remaining blood is sharply centrifuged once more in order to obtain plasma. The PRP is diluted 1:10 with autologous plasma. 750 μl are incubated with 50 μl of physiological saline solution, 100 μl of test substance solution, 50 μl of ^14 C-sucrose (3,700 Bq) and 50 μl of ^3 H-BIBU 52 (final concentration: 5 nM) at ambient temperature for 20 minutes. In order to measure the non-specific binding, 5 μl of BIBU 52 (final concentration: 30 μM) are used instead of the test substance. The samples are centrifuged for 20 seconds at 10,000 x g and the supernatant is poured off. 100 μl thereof are measured in order to determine the free ligand. The pellet is dissolved in 500 μl of 0.2N NaOH, 450 μl are mixed with 2 ml of scintillator and 25 μl of 5N HCl and measured. The residual plasma remaining in the pellet is determined from the ^14 C-content and the bound ligand is determined from the ^3 H-measurement. After the non-specific binding has been deducted, the pellet activity is plotted against the concentration of the test substance and the concentration for a 50% inhibition of binding is determined.

[2] = system: platelet aggregation; test: Antithrombotic activity: inhibition of collagen-induced platelet aggregation (Born and Cross method); type: cell-based; conditions: Homo sapiens, 10 min, platelet-rich plasma from healthy volunteers, 10 minutes incubation at 37° C.
Procedure: 2. Antithrombotic activity Method The thrombocyte aggregation is measured using the Born and Cross method (J. Physiol. 170:397 (1964)) in platelet-rich plasma taken from healthy volunteers. To inhibit coagulation the blood is mixed with 3.14% sodium citrate in a volume ratio of 1:10. Collagen-induced aggregation The pattern of the decrease in optical density of the platelet suspension is photometrically measured and recorded after the addition of the aggregation-triggering substance. The rate of aggregation is determined from the angle of inclination of the density curve. The point on the curve where there is maximum light transmittance is used to calculate the optical density. The amount of collagen used is as small as possible but sufficient to produce an irreversible reaction curve. Standard commercial collagen produced by Hormonchemie of Munich is used. Before the addition of the collagen the plasma is incubated for 10 minutes with the substance at 37° C. From the measurements obtained an EC50 is determined graphically, indicating a 50% change in the optical density in terms of the inhibition of aggregation. The Table which follows contains the results found: […]

[3] = system: mice; test: Tolerability after intravenous administration to mice; type: in vivo; conditions: intravenous administration of 15 mg/kg, 3 animals

| SMILES | IC50 [1] [nM] | EC50 [2] [nM] | deaths [3] |
| --- | --- | --- | --- |
| N=C(N)c1ccc(N2CCC(c3ccc(CCC(=O)O)cc3)C2=O)cc1 (stereo not shown) [2(13), 1-(4-amidinophenyl)-3-[4-(2-carboxy-ethyl)-phenyl]-pyrrolidin-2-one-hydrochloride] | 110 | 260 | – |
| COC1=C(c2ccc(CCC(=O)O)cc2)C(=O)N(c2ccc(C(=N)N)cc2)C1 [Example 2, -(4-Amidinophenyl)-3-[4-(2-carboxyethyl)-phenyl]-4-methoxy-3-pyrrolin-2one-hydrochloride] | 11 | 40 | none of the 3 animals tested died |
| CC1(c2ccc(CCC(=O)O)cc2)C(=O)CN(c2ccc(C(=N)N)cc2)C1=O (stereo not shown) [Example 13, 1-(4-Amidinophenyl)-3-[4-(2-carboxy-ethyl)-phenyl]-3-methyl-pyrrolidin-2,4-dione-hydrochloride] | 360 | 500 | – |

More lines, main results first:

| IC50 [1] [nM] | SMILES | EC50 [2] [nM] | deaths [3] |
| --- | --- | --- | --- |
| 42 | N=C(N)c1ccc(N2CC(N3CCOCC3)=C(c3ccc(CCC(=O)O)cc3)C2=O)cc1 [2(3), 1-(4-amidinophenyl)-3-[4-(2-carboxy-ethyl)-phenyl]-4-morpholino-3-pyrrolin-2-one-hydrochloride] | 730 | – |
| 180 | COC1=C(c2ccc(CCC(=O)O)cc2)C(=O)N(c2ccc(CN)cc2)C1 [2(55), 1-(4-aminomethyl-phenyl)-3-[4-(2-carboxy-ethyl)phenyl]-4-methoxy-3-pyrrolin-2-one-hydrochloride] | 330 | – |
| 8600 | COC(=O)CCc1ccc(C2=C(OC)CN(c3ccc(CN)cc3)C2=O)cc1 [5(B), 1-(4-Aminomethyl-phenyl)-4-methoxy-3-[4-(2-methoxycarbonyl-ethyl)-phenyl]-3-pyrrolin-2-one] | 380 | – |
